Measured values as given in US10131652B2, “Pyrimidinyloxy benzene derivatives as herbicides” (E. I. DU PONT DE NEMOURS AND COMPANY, priority 2014, dated 2018).
Read-outs that look alike come from different tables or passages of the source.

Tests used:
Assay in all cases: Test D pre-/postemergence plant response
Type in all cases: in vivo
[1] = system: Italian ryegrass (Lolium multiflorum); conditions: Lolium multiflorum; for pest or weed control at 62 g/ha: 62 g ai/ha; for pest or weed control at 125 g/ha: 125 g ai/ha
How it was run: (§1)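 Seeds were planted in a loam and sand blend and sprayed preemergence. In parallel, seedlings grown in peat moss/vermiculite medium were sprayed postemergence at 2 to 18 cm height. Both used a surfactant-containing non-phytotoxic solvent. Greenhouse ratings at 13 to 15 days used a 0–100 control scale.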

[2] = system: winter wheat (Triticum aestivum); conditions: Triticum aestivum; for plant injury at 31 g/ha: 31 g ai/ha; for plant injury at 62 g/ha: 62 g ai/ha; for plant injury at 125 g/ha: 125 g ai/ha
How it was run: as §1

[3] = system: blackgrass (Alopecurus myosuroides); conditions: Alopecurus myosuroides; for pest or weed control at 16 g/ha: 16 g ai/ha; for pest or weed control at 31 g/ha: 31 g ai/ha; for pest or weed control at 62 g/ha: 62 g ai/ha; for pest or weed control at 125 g/ha: 125 g ai/ha
How it was run: as §1

soybean (Glycine max) = conditions: Glycine max; for plant injury at 31 g/ha: 31 g ai/ha; for plant injury at 62 g/ha: 62 g ai/ha; for plant injury at 125 g/ha: 125 g ai/ha
How it was run: as §1

[4] = system: pigweed (Amaranthus retroflexus); conditions: Amaranthus retroflexus; for pest or weed control at 31 g/ha: 31 g ai/ha; for pest or weed control at 62 g/ha: 62 g ai/ha; for pest or weed control at 125 g/ha: 125 g ai/ha
How it was run: as §1

[5] = system: large (Lg) crabgrass (Digitaria sanguinalis); conditions: Digitaria sanguinalis; for pest or weed control at 16 g/ha: 16 g ai/ha; for pest or weed control at 31 g/ha: 31 g ai/ha; for pest or weed control at 62 g/ha: 62 g ai/ha; for pest or weed control at 125 g/ha: 125 g ai/ha
How it was run: as §1

[6] = system: giant foxtail (Setaria faberii); conditions: Setaria faberi; for pest or weed control at 16 g/ha: 16 g ai/ha; for pest or weed control at 31 g/ha: 31 g ai/ha; for pest or weed control at 62 g/ha: 62 g ai/ha; for pest or weed control at 125 g/ha: 125 g ai/ha
How it was run: as §1

[7] = system: galium (catchweed bedstraw, Galium aparine); conditions: Galium; for pest or weed control at 31 g/ha: 31 g ai/ha; for pest or weed control at 62 g/ha: 62 g ai/ha; for pest or weed control at 125 g/ha: 125 g ai/ha
How it was run: as §1

[8] = system: johnsongrass (Sorghum halepense); conditions: Sorghum halepense; for pest or weed control at 31 g/ha: 31 g ai/ha; for pest or weed control at 62 g/ha: 62 g ai/ha; for pest or weed control at 125 g/ha: 125 g ai/ha
How it was run: as §1

[9] = post-emergence, Postemergence, scale 0 to 100, 0 no effect, 100 complete control, read-out: Plant response rating, Ryegrass, Italian
[10] = post-emergence, Postemergence, scale 0 to 100, 0 no effect, 100 complete control, read-out: Plant response rating, Wheat
[11] = pre-emergence, Preemergence, scale 0 to 100 (0 no effect, 100 complete control), read-out: Plant response rating, Wheat
[12] = post-emergence, Postemergence, scale 0 to 100 (0 no effect, 100 complete control), read-out: Blackgrass plant response rating
[13] = post-emergence, Postemergence, scale 0 to 100, 0 no effect, 100 complete control, read-out: Plant response rating, Blackgrass
[14] = pre-emergence, Preemergence, scale 0 to 100 (0 no effect, 100 complete control), read-out: Plant response rating, Blackgrass
[15] = post-emergence, Postemergence, scale 0 to 100, 0 no effect, 100 complete control, read-out: Plant response rating, Soybean
[16] = pre-emergence, Preemergence, scale 0 to 100 (0 no effect, 100 complete control), read-out: Plant response rating, Soybean
[17] = post-emergence, Postemergence, scale 0 to 100, 0 no effect, 100 complete control, read-out: Plant response rating, Pigweed
[18] = pre-emergence, Preemergence, scale 0 to 100 (0 no effect, 100 complete control), read-out: Plant response rating, Pigweed
[19] = post-emergence, Postemergence, scale 0 to 100 (0 no effect, 100 complete control), read-out: Crabgrass, Large plant response rating
[20] = post-emergence, Postemergence, scale 0 to 100, 0 no effect, 100 complete control, read-out: Plant response rating, Crabgrass, Large
[21] = pre-emergence, Preemergence, scale 0 to 100 (0 no effect, 100 complete control), read-out: Plant response rating, Crabgrass, Large
[22] = post-emergence, Postemergence, scale 0 to 100 (0 no effect, 100 complete control), read-out: Foxtail, Giant plant response rating
[23] = post-emergence, Postemergence, scale 0 to 100, 0 no effect, 100 complete control, read-out: Plant response rating, Foxtail, Giant
[24] = pre-emergence, Preemergence, scale 0 to 100 (0 no effect, 100 complete control), read-out: Plant response rating, Foxtail, Giant
[25] = post-emergence, Postemergence, scale 0 to 100, 0 no effect, 100 complete control, read-out: Plant response rating, Galium
[26] = pre-emergence, Preemergence, scale 0 to 100 (0 no effect, 100 complete control), read-out: Plant response rating, Galium
[27] = post-emergence, Postemergence, scale 0 to 100, 0 no effect, 100 complete control, read-out: Plant response rating, Johnsongrass
[28] = pre-emergence, Preemergence, scale 0 to 100 (0 no effect, 100 complete control), read-out: Plant response rating, Johnsongrass

Fc1cccc(Oc2ncc(Br)cn2)c1-c1cc(C(F)F)no1 [Compound 145, 5-bromo-2-[2-[3-(difluoromethyl)-5-isoxazolyl]-3-fluorophenoxy]pyrimidine]
pest or weed control at 62 g/ha [1, 9]: 10% | pest or weed control at 125 g/ha [1, 9]: 10% | pest or weed control at 125 g/ha ([1]; pre-emergence, Preemergence, read-out: Plant response rating (scale 0 to 100), Ryegrass, Italian): 85% | pest or weed control at 16 g/ha ([1]; pre-emergence, Preemergence, 16 g ai/ha, scale 0 to 100 (0 no effect, 100 complete control), read-out: Plant response rating, Ryegrass, Italian): 0% | pest or weed control at 31 g/ha ([1]; pre-emergence, Preemergence, 31 g ai/ha, scale 0 to 100 (0 no effect, 100 complete control), read-out: Plant response rating, Ryegrass, Italian): 35% | pest or weed control at 62 g/ha ([1]; pre-emergence, Preemergence, scale 0 to 100 (0 no effect, 100 complete control), read-out: Plant response rating, Ryegrass, Italian): 70% | plant injury at 31 g/ha ([2]; post-emergence, Postemergence, scale 0 to 100 (0 no effect, 100 complete control), read-out: Wheat plant response rating): 5% | plant injury at 62 g/ha [2, 10]: 5% | plant injury at 125 g/ha [2, 10]: 10% | plant injury at 125 g/ha ([2]; pre-emergence, Preemergence, read-out: Plant response rating (scale 0 to 100), Wheat): 10% | plant injury at 16 g/ha ([2]; pre-emergence, Preemergence, 16 g ai/ha, scale 0 to 100 (0 no effect, 100 complete control), read-out: Plant response rating, Wheat): 0% | plant injury at 31 g/ha [2, 11]: 0% | plant injury at 62 g/ha [2, 11]: 5% | pest or weed control at 16 g/ha [3, 12]: 15% | pest or weed control at 31 g/ha [3, 12]: 20% | pest or weed control at 62 g/ha [3, 13]: 25% | pest or weed control at 125 g/ha [3, 13]: 80% | pest or weed control at 125 g/ha ([3]; pre-emergence, Preemergence, read-out: Plant response rating (scale 0 to 100), Blackgrass): 95% | pest or weed control at 16 g/ha [3, 14]: 15% | pest or weed control at 31 g/ha [3, 14]: 90% | pest or weed control at 62 g/ha [3, 14]: 95% | plant injury at 31 g/ha (soybean (Glycine max); post-emergence, Postemergence, scale 0 to 100 (0 no effect, 100 complete control), read-out: Soybean plant response rating): 60% | plant injury at 62 g/ha (soybean (Glycine max); [15]): 75% | plant injury at 125 g/ha (soybean (Glycine max); [15]): 75% | plant injury at 125 g/ha (soybean (Glycine max); pre-emergence, Preemergence, read-out: Plant response rating (scale 0 to 100), Soybean): 90% | plant injury at 16 g/ha (soybean (Glycine max); pre-emergence, Preemergence, 16 g ai/ha, scale 0 to 100 (0 no effect, 100 complete control), read-out: Plant response rating, Soybean): 10% | plant injury at 31 g/ha (soybean (Glycine max); [16]): 60% | plant injury at 62 g/ha (soybean (Glycine max); [16]): 75% | pest or weed control at 31 g/ha ([4]; post-emergence, Postemergence, scale 0 to 100 (0 no effect, 100 complete control), read-out: Pigweed plant response rating): 95% | pest or weed control at 62 g/ha [4, 17]: 98% | pest or weed control at 125 g/ha [4, 17]: 98% | pest or weed control at 125 g/ha ([4]; pre-emergence, Preemergence, read-out: Plant response rating (scale 0 to 100), Pigweed): 100% | pest or weed control at 16 g/ha ([4]; pre-emergence, Preemergence, 16 g ai/ha, scale 0 to 100 (0 no effect, 100 complete control), read-out: Plant response rating, Pigweed): 100% | pest or weed control at 31 g/ha [4, 18]: 100% | pest or weed control at 62 g/ha [4, 18]: 100% | pest or weed control at 16 g/ha [5, 19]: 5% | pest or weed control at 31 g/ha [5, 19]: 10% | pest or weed control at 62 g/ha [5, 20]: 10% | pest or weed control at 125 g/ha [5, 20]: 20% | pest or weed control at 125 g/ha ([5]; pre-emergence, Preemergence, read-out: Plant response rating (scale 0 to 100), Crabgrass, Large): 100% | pest or weed control at 16 g/ha [5, 21]: 85% | pest or weed control at 31 g/ha [5, 21]: 100% | pest or weed control at 62 g/ha [5, 21]: 100% | pest or weed control at 16 g/ha [6, 22]: 5% | pest or weed control at 31 g/ha [6, 22]: 10% | pest or weed control at 62 g/ha [6, 23]: 20% | pest or weed control at 125 g/ha [6, 23]: 20% | pest or weed control at 125 g/ha ([6]; pre-emergence, Preemergence, read-out: Plant response rating (scale 0 to 100), Foxtail, Giant): 100% | pest or weed control at 16 g/ha [6, 24]: 85% | pest or weed control at 31 g/ha [6, 24]: 100% | pest or weed control at 62 g/ha [6, 24]: 100% | pest or weed control at 31 g/ha ([7]; post-emergence, Postemergence, scale 0 to 100 (0 no effect, 100 complete control), read-out: Galium plant response rating): 80% | pest or weed control at 62 g/ha [7, 25]: 80% | pest or weed control at 125 g/ha [7, 25]: 90% | pest or weed control at 125 g/ha ([7]; pre-emergence, Preemergence, read-out: Plant response rating (scale 0 to 100), Galium): 100% | pest or weed control at 16 g/ha ([7]; pre-emergence, Preemergence, 16 g ai/ha, scale 0 to 100 (0 no effect, 100 complete control), read-out: Plant response rating, Galium): 90% | pest or weed control at 31 g/ha [7, 26]: 98% | pest or weed control at 62 g/ha [7, 26]: 100% | pest or weed control at 31 g/ha ([8]; post-emergence, Postemergence, scale 0 to 100 (0 no effect, 100 complete control), read-out: Johnsongrass plant response rating): 5% | pest or weed control at 62 g/ha [8, 27]: 5% | pest or weed control at 125 g/ha [8, 27]: 40% | pest or weed control at 125 g/ha ([8]; pre-emergence, Preemergence, read-out: Plant response rating (scale 0 to 100), Johnsongrass): 95% | pest or weed control at 16 g/ha ([8]; pre-emergence, Preemergence, 16 g ai/ha, scale 0 to 100 (0 no effect, 100 complete control), read-out: Plant response rating, Johnsongrass): 10% | pest or weed control at 31 g/ha [8, 28]: 75% | pest or weed control at 62 g/ha [8, 28]: 90%
